# Results taken from patent US20110257732A1, “STENTS HAVING CONTROLLED ELUTION” (Micell Technologies, Inc., priority 2010, published 2011).
# Assays:
# [1] = Stented artery sirolimus concentration (Example 34); assay type: in vivo, porcine; settings: for Pharmaceutical agent released from the coated stent recovered in the analyzed arterial tissue: based on 135 micrograms on the original stent at time 0
# Procedure: (§1) Pharmacokinetic studies were performed on coated stents prepared and implanted as noted in Example 32. […] The coating encapsuled each of the stents.
# (§2) Complete balloon deflation was verified with fluoroscopy.
# (§3) Subjects were euthanized at the testing time points, and the tissue adjacent the stent (for non-limiting example, tissue surrounding the stent—referred to generally as arterial tissue) was extracted for analysis of the amount of pharmaceutical agent therein. Stents were also analyzed for the amount of pharmaceutical agent remaining on the coated stent at each time point. Testing methods as noted elsewhere herein were used to determine the amount of pharmaceutical agent remaining on the stent or in the tissue, and/or are methods that would be known to one of skill in the art.
# [2] = Sirolimus remaining on and released from explanted stents (Example 34); assay type: in vivo, porcine; settings: for Stent-associated sirolimus, Drug Released, Mean: calculated from Day 0 baseline measurement
# Procedure: as §1, §2, §3
# [3] = Whole blood rapamycin concentration after coated stent implantation, LC-MS/MS (Example 32); settings: every time point 5 minutes to day 180, every subject; one coated stent (135 micrograms sirolimus) per porcine subject
# Procedure: Blood serum levels of porcine subjects having coated stents implanted were tested at multiple time points. The coated stents implanted were prepared as follows: coated stents for the study comprise a coating that was deposited on the stent by deposition of rapamycin in dry powder form by RESS methods and equipment described herein and deposition of polymer particles by RESS methods and equipment described herein. A PDPDP (Polymer, sinter, Drug, Polymer, sinter, Drug, Polymer, sinter) coating sequence was used wherein the polymer was 50:50 PLGA, and the drug was rapamycin. The sinter step was performed at 100° C./150 psi/10 min after each “P” (or polymer) layer. […] The coating was about 5-15 micrometers thick on each stent, and comprised a thicker coating on the abluminal surface (coating bias). […]
# Multiple batches of coated stents were created, implanted in the porcine subjects, one coated stent per subject, and each subject's blood serum levels were tested at multiple time points. […] The balloon was then inflated at a steady rate to a pressure sufficient to target a visually assessed balloon-artery ratio of 1.1:1-1.2:1. Confirmation of this balloon-artery ratio was made when the angiographic images were quantitatively assessed. […]
# The whole blood sample was tested for rapamycin concentration using LC-MS/MS. Samples were quantified for rapamycin using ascomycin as the internal standard. […]
# [4] = Day 60, porcine coronary artery
# [5] = Day 90, porcine coronary artery
smiles,measurement,setting,value
CO[C@H]1C[C@@H]2CC[C@@H](C)[C@@](O)(O2)C(=O)C(=O)N2CCCC[C@H]2C(=O)O[C@H]([C@H](C)C[C@@H]2CC[C@@H](O)[C@H](OC)C2)CC(=O)[C@H](C)/C=C(\C)[C@@H](O)[C@@H](OC)C(=O)[C@H](C)C[C@H](C)/C=C/C=C/C=C/1C [rapamycin],Pharmaceutical agent released from the coated stent recovered in the analyzed arterial tissue,[1]; at day 30,about 60%
same,Pharmaceutical agent released from the coated stent recovered in the analyzed arterial tissue,[1]; between days 3 and 60,about 40%
same,concentration at 1 day,"[1]; pig, stented arterial tissue, other: coated stent implanted in coronary artery, 135 micrograms per stent, day 1, porcine, coated stent 135 micrograms sirolimus, read-out: Stented artery sirolimus concentration (tissue within stented segments)",19600 ng/g
same,concentration at 3 day,"[1]; pig, stented arterial tissue, other: coated stent implanted in coronary artery, 135 micrograms per stent, day 3, porcine, coated stent 135 micrograms sirolimus, read-out: Stented artery sirolimus concentration (tissue within stented segments)",21400 ng/g
same,concentration at 7 day,"[1]; pig, stented arterial tissue, other: coated stent implanted in coronary artery, 135 micrograms per stent, day 7, porcine, coated stent 135 micrograms sirolimus, read-out: Stented artery sirolimus concentration (tissue within stented segments)",42200 ng/g
same,concentration at 14 day,"[1]; pig, stented arterial tissue, other: coated stent implanted in coronary artery, 135 micrograms per stent, day 14, porcine, coated stent 135 micrograms sirolimus, read-out: Stented artery sirolimus concentration (tissue within stented segments)",55900 ng/g
same,concentration at 21 day,"[1]; pig, stented arterial tissue, other: coated stent implanted in coronary artery, 135 micrograms per stent, day 21, porcine, coated stent 135 micrograms sirolimus, read-out: Stented artery sirolimus concentration (tissue within stented segments)",173000 ng/g
same,concentration at 30 day,"[1]; pig, stented arterial tissue, other: coated stent implanted in coronary artery, 135 micrograms per stent, day 30, porcine, coated stent 135 micrograms sirolimus, read-out: Stented artery sirolimus concentration (tissue within stented segments)",565000 ng/g
same,concentration at 45 day,"[1]; pig, stented arterial tissue, other: coated stent implanted in coronary artery, 135 micrograms per stent, day 45, porcine, coated stent 135 micrograms sirolimus, read-out: Stented artery sirolimus concentration (tissue within stented segments)",582000 ng/g
same,concentration at 60 day,"[1]; pig, stented arterial tissue, other: coated stent implanted in coronary artery, 135 micrograms per stent, day 60, porcine, coated stent 135 micrograms sirolimus, read-out: Stented artery sirolimus concentration (tissue within stented segments)",532000 ng/g
same,concentration at 90 day,"[1]; pig, stented arterial tissue, other: coated stent implanted in coronary artery, 135 micrograms per stent, day 90, porcine, coated stent 135 micrograms sirolimus, read-out: Stented artery sirolimus concentration (tissue within stented segments)",251000 ng/g
same,"Stent-associated sirolimus, Drug Released, Mean",[2]; Day 0 baseline,0 µg
same,"Stent-associated sirolimus, Drug Remaining, Mean","[2]; Day 0 baseline, coated stent (PDPDP, 50:50 PLGA, 135 micrograms sirolimus)",137.00 µg
same,"Stent-associated sirolimus, Drug Remaining, Mean","[2]; Day 1, coated stent (PDPDP, 50:50 PLGA, 135 micrograms sirolimus) in porcine coronary artery",137.00 µg
same,"Stent-associated sirolimus, Drug Released, Mean","[2]; Day 1, porcine coronary artery",1.67 µg
same,"Stent-associated sirolimus, Drug Remaining, Mean","[2]; Day 3, coated stent (PDPDP, 50:50 PLGA, 135 micrograms sirolimus) in porcine coronary artery",135.83 µg
same,"Stent-associated sirolimus, Drug Released, Mean","[2]; Day 3, porcine coronary artery",2.83 µg
same,"Stent-associated sirolimus, Drug Remaining, Mean","[2]; Day 7, coated stent (PDPDP, 50:50 PLGA, 135 micrograms sirolimus) in porcine coronary artery",127.83 µg
same,"Stent-associated sirolimus, Drug Released, Mean","[2]; Day 7, porcine coronary artery",9.17 µg
same,"Stent-associated sirolimus, Drug Remaining, Mean","[2]; Day 14, coated stent (PDPDP, 50:50 PLGA, 135 micrograms sirolimus) in porcine coronary artery",119.67 µg
same,"Stent-associated sirolimus, Drug Released, Mean","[2]; Day 14, porcine coronary artery",17.33 µg
same,"Stent-associated sirolimus, Drug Remaining, Mean","[2]; Day 21, coated stent (PDPDP, 50:50 PLGA, 135 micrograms sirolimus) in porcine coronary artery",103.68 µg
same,"Stent-associated sirolimus, Drug Released, Mean","[2]; Day 21, porcine coronary artery",33.32 µg
same,"Stent-associated sirolimus, Drug Remaining, Mean","[2]; Day 30, coated stent (PDPDP, 50:50 PLGA, 135 micrograms sirolimus) in porcine coronary artery",65.25 µg
same,"Stent-associated sirolimus, Drug Released, Mean","[2]; Day 30, porcine coronary artery",71.75 µg
same,"Stent-associated sirolimus, Drug Remaining, Mean","[2]; Day 45, coated stent (PDPDP, 50:50 PLGA, 135 micrograms sirolimus) in porcine coronary artery",3.89 µg
same,"Stent-associated sirolimus, Drug Released, Mean","[2]; Day 45, porcine coronary artery",133.12 µg
same,"Stent-associated sirolimus, Drug Remaining, Mean","[2]; Day 60, coated stent (PDPDP, 50:50 PLGA, 135 micrograms sirolimus) in porcine coronary artery",1.59 µg
same,Average incremental stent sirolimus elution (loss) rate,[2]; [4],0.15 ± 0.04 µg/day
same,"Stent-associated sirolimus, Drug Released, Mean",[2]; [4],135.41 µg
same,"Stent-associated sirolimus, Drug Remaining, Mean","[2]; Day 90, coated stent (PDPDP, 50:50 PLGA, 135 micrograms sirolimus) in porcine coronary artery",0.11 µg
same,Average incremental stent sirolimus elution (loss) rate,[2]; [5],0.05 ± 0.00 µg/day
same,"Stent-associated sirolimus, Drug Released, Mean",[2]; [5],136.89 µg
same,Average incremental stent sirolimus elution (loss) rate,"[2]; peak around day 30, porcine coronary artery",4.27 ± 1.69 µg/day
same,Concentration of rapamycin in whole blood (below quantifiable limit),[3],< 0.100 ng/mL
